From ChEMBL document CHEMBL5532643, “Design and synthesis of etrasimod derivatives as potent antibacterial agents against Gram-positive bacteria” (Eur J Med Chem, 2024)
Values after ≈ are worked out from the molar mass of the structure shown. Values joined by “and” are separate entries in the source; they are usually repeats but may differ in a detail not shown here. Identical values can stand only once. Active and inactive are the calls of the source. No cut-off for these calls is given here.

Experiments:
Cell membrane [1] = assay: Induction of cell membrane permeability in Staphylococcus aureus ATCC 25923 assessed as increase in fluorescence intensity incubated for 30 mins by PI staining based analysis; type: cell membranes
[2] = system: Staphylococcus epidermidis; assay: Antibacterial activity against […] Staphylococcus epidermidis RP62A assessed as reduction in bacterial growth incubated for 18 to 20 hrs by broth microdilution assay; type: functional; details: time 18-20 hrs
Staphylococcus aureus [3] = assay: Antibacterial activity against Staphylococcus aureus ATCC 25923 assessed as reduction in bacterial growth incubated for 18 to 20 hrs by broth microdilution assay; type: functional; details: time 18-20 hrs
Staphylococcus aureus [4] = assay: Antibiofilm activity against Staphylococcus aureus ATCC 25923 assessed as inhibition of biofilm biomass at 100 uM incubated for 18 to 20 hrs by crystal violet staining based assay; type: functional; details: time 18-20 hrs
[5] = Cytotoxicity against human THP-1 cells assessed as reduction in cell viability incubated for 24 hrs by resazurin staining based analysis; type: toxicity
Staphylococcus aureus [6] = assay: Antimicrobial activity against Staphylococcus aureus ATCC 25923 infected in Caenorhabditis elegans AU37 assessed as reduction in bacterial burden at 20 uM incubated for 18 hrs; type: functional; parameters: scale not given: the % may be the effect or the level left
[7] = Hemolytic activity in mouse RBC assessed as hemolysis at 125 uM incubated for 1 hr; type: toxicity, cell-based, Erythrocyte; details: mouse red blood cells (erythrocytes), read-out: Activity
THP-1 = assay: Cytotoxicity against human THP-1 cells assessed as reduction in cell viability at 50 uM incubated for 24 hrs by resazurin staining based analysis relative to control; type: toxicity; details: thp-1, 24 h
Staphylococcus aureus [8] = assay: Antibiofilm activity against Staphylococcus aureus ATCC 25923 assessed as inhibition of biofilm viability at 100 uM incubated for 18 to 20 hrs by resazurin staining based assay; type: functional; details: time 18-20 hrs
Enterococcus faecalis [9] = assay: Antibacterial activity against vancomycin-resistant Enterococcus faecalis ATCC 51575 assessed as reduction in bacterial growth incubated for 18 to 20 hrs by broth microdilution assay; type: functional; details: time 18-20 hrs
Enterococcus faecium = assay: Antibacterial activity against vancomycin-resistant Enterococcus faecium ATCC 700221 assessed as reduction in bacterial growth incubated for 18 to 20 hrs by broth microdilution assay; type: functional; details: time 18-20 hrs
Erythrocyte = assay: Hemolytic activity in mouse RBC assessed as hemolysis at 62.5 uM incubated for 1 hr; type: toxicity, cell-based
Staphylococcus aureus [10] = assay: Antibacterial activity against […] Staphylococcus aureus ATCC 43300 assessed as reduction in bacterial growth incubated for 18 to 20 hrs by broth microdilution assay; type: functional; details: time 18-20 hrs
[11] = system: Staphylococcus epidermidis; assay: Antibacterial activity against Staphylococcus epidermidis RP62A assessed as reduction in bacterial growth incubated for 18 to 20 hrs by broth microdilution assay; type: functional; details: time 18-20 hrs
Enterococcus faecalis [12] = assay: Antibacterial activity against Enterococcus faecalis ATCC 29212 assessed as reduction in bacterial growth incubated for 18 to 20 hrs by broth microdilution assay; type: functional; details: time 18-20 hrs
[13] = Toxicity in Caenorhabditis elegans AU37 assessed as worms survival at 10 uM measured after 72 hrs
[14] = Dissociation constant, pKa of compound; type: physicochemical
Cell membrane [15] = assay: Induction of cytoplasmic membrane depolarization in Staphylococcus aureus ATCC 25923 assessed as increase in fluorescence intensity at 4 times MIC measured for 30 mins by DiSC3(5) dye based fluorescence method; type: cell membranes
Pseudomonas aeruginosa = assay: Antibacterial activity against Pseudomonas aeruginosa ATCC 15442 assessed as reduction in bacterial growth incubated for 18 to 20 hrs by broth microdilution assay; type: functional; details: time 18-20 hrs
[16] = Hemolytic activity in mouse RBC assessed as hemolysis at 250 uM incubated for 1 hr; type: toxicity, cell-based, Erythrocyte; details: mouse red blood cells (erythrocytes), read-out: Activity
Staphylococcus aureus [17] = assay: Antimicrobial activity against methicillin-resistant Staphylococcus aureus ATCC 43300 infected in Caenorhabditis elegans AU37 assessed as reduction in bacterial burden at 20 uM incubated for 18 hrs; type: functional; parameters: scale not given: the % may be the effect or the level left
Staphylococcus aureus [18] = assay: Antibacterial activity against Staphylococcus aureus ATCC 43300 assessed as reduction in bacterial growth incubated for 18 to 20 hrs by broth microdilution assay; type: functional; details: time 18-20 hrs
Acinetobacter baumannii = assay: Antibacterial activity against Acinetobacter baumannii NCTC 13423 assessed as reduction in bacterial growth incubated for 18 to 20 hrs by broth microdilution assay; type: functional; details: time 18-20 hrs
Staphylococcus aureus [19] = assay: Antibacterial activity against Staphylococcus aureus ATCC 25923 assessed as inhibition of bacterial growth at 40 uM incubated for 18 to 24 hrs by broth microdilution assay relative to control; type: functional; details: time 18-24 hrs
Staphylococcus aureus [20] = assay: Antibiofilm activity against Staphylococcus aureus ATCC 25923 assessed as reduction in biofilm biomass at 100 uM incubated for 18 to 20 hrs by crystal violet staining based assay; type: functional; parameters: scale not given: the % may be the effect or the level left; details: time 18-20 hrs
Cell membrane [21] = assay: Induction of cell membrane permeability in Staphylococcus aureus ATCC 25923 assessed as increase in fluorescence intensity at 4 times MIC incubated for 30 mins by PI staining based analysis; type: cell membranes
Staphylococcus aureus [22] = assay: Drug resistance, ratio of MIC for Staphylococcus aureus ATCC 25923 after 20 days exposure to MIC for Staphylococcus aureus ATCC 25923 during first exposure; type: functional; details: time 20 day
Staphylococcus aureus [23] = assay: Drug resistance, ratio of MIC for methicillin-resistant Staphylococcus aureus after 20 days exposure to MIC for methicillin-resistant Staphylococcus aureus during first exposure; type: functional; details: time 20 day

## CC[C@H](C)[C@H](NC(=O)CN)C(=O)NCC(=O)N[C@@H](C)C(=O)N[C@H](C(=O)N[C@@H](CC(C)C)C(=O)N[C@@H](CCCCN)C(=O)N[C@H](C(=O)N[C@@H](CC(C)C)C(=O)N[C@H](C(=O)N[C@H](C(=O)NCC(=O)N[C@@H](CC(C)C)C(=O)N1CCC[C@H]1C(=O)N[C@@H](C)C(=O)N[C@@H](CC(C)C)C(=O)N[C@H](C(=O)N[C@@H](CO)C(=O)N[C@@H](Cc1c[nH]c2ccccc12)C(=O)N[C@H](C(=O)N[C@@H](CCCCN)C(=O)N[C@@H](CCCNC(=N)N)C(=O)N[C@@H](CCCCN)C(=O)N[C@@H](CCCNC(=N)N)C(=O)N[C@@H](CCC(N)=O)C(=O)N[C@@H](CCC(N)=O)C(N)=O)[C@@H](C)CC)[C@@H](C)CC)[C@@H](C)O)[C@@H](C)O)C(C)C)C(C)C
Cell membrane [1]
  Activity: Active

## O=C(O)C[C@H]1CCc2c1[nH]c1ccc(OCc3ccc(C4CCCC4)c(C(F)(F)F)c3)cc21 [ETRASIMOD]
[2]
  MIC: 5 µM (≈ 2.29 µg/mL)
Staphylococcus aureus [3]
  MIC: 5 µM and 2.3 µg/mL
Staphylococcus aureus [4]
  inhibition at 100 µM: 20%
[5]
  CC50 at 24 h: 57.7 µM
Staphylococcus aureus [6]
  Activity: >85%
[7]
  hemolysis at 1 h, 125 µM: 7%
THP-1
  Activity: 64%
Staphylococcus aureus [8]
  inhibition at 100 µM: 80%
Enterococcus faecalis [9]
  MIC: 10 µM (≈ 4.57 µg/mL)
Enterococcus faecium
  MIC: 5 µM (≈ 2.29 µg/mL)
Erythrocyte
  Activity: Non-Toxic
Staphylococcus aureus [10]
  MIC: 5 µM (≈ 2.29 µg/mL)
[11]
  MIC: 10 µM (≈ 4.57 µg/mL)
Enterococcus faecalis [12]
  MIC: 5 µM (≈ 2.29 µg/mL)
[13]
  Activity: Non-Toxic
[14]
  pKa: 4
Cell membrane [15]
  Activity: inactive
Pseudomonas aeruginosa
  MIC: > 200 µM
[16]
  hemolysis at 1 h, 250 µM: 100%
Staphylococcus aureus [17]
  Activity: 77%
Staphylococcus aureus [18]
  MIC: 5 µM (≈ 2.29 µg/mL)
Acinetobacter baumannii
  MIC: > 200 µM

## O=C(O)CC1CCc2c1[nH]c1ccc(OCc3cnc(C4CCCC4)c(C(F)(F)F)c3)cc21 (centres undefined)
Staphylococcus aureus [3]
  MIC: 20 µM and 9.2 µg/mL
Staphylococcus aureus [4]
  inhibition at 100 µM: > 90%
Staphylococcus aureus [19]
  inhibition at 40 µM: ≤ 90%
Staphylococcus aureus [20]
  Activity: 50%
Staphylococcus aureus [8]
  inhibition at 100 µM: > 90%

## CN[C@H](CC(C)C)C(=O)N[C@H]1C(=O)N[C@@H](CC(N)=O)C(=O)N[C@H]2C(=O)N[C@H]3C(=O)N[C@H](C(=O)N[C@H](C(=O)O)c4cc(O)cc(O)c4-c4cc3ccc4O)[C@H](O)c3ccc(c(Cl)c3)Oc3cc2cc(c3O[C@@H]2O[C@H](CO)[C@@H](O)[C@H](O)[C@H]2O[C@H]2C[C@](C)(N)[C@H](O)[C@H](C)O2)Oc2ccc(cc2Cl)[C@H]1O [VANCOMYCIN]
[2]
  MIC: 2.5 µM (≈ 3.62 µg/mL)
Staphylococcus aureus [3]
  MIC: 2.5 µM and 3.6 µg/mL
Staphylococcus aureus [4]
  inhibition at 100 µM: 25%
Staphylococcus aureus [6]
  Activity: 72%
Staphylococcus aureus [8]
  inhibition at 100 µM: 50%
Cell membrane [21]
  Activity: inactive
Enterococcus faecalis [9]
  MIC: 40 µM (≈ 58 µg/mL)
Enterococcus faecium
  MIC: 40 µM (≈ 58 µg/mL)
Staphylococcus aureus [10]
  MIC: 1.25 µM (≈ 1.81 µg/mL)
[11]
  MIC: 2.5 µM (≈ 3.62 µg/mL)
Enterococcus faecalis [12]
  MIC: 2.5 µM (≈ 3.62 µg/mL)
Staphylococcus aureus [17]
  Activity: 61%
Staphylococcus aureus [18]
  MIC: 1.25 µM (≈ 1.81 µg/mL)

## O=C(O)c1cn(C2CC2)c2cc(N3CCNCC3)c(F)cc2c1=O [CIPROFLOXACIN]
Staphylococcus aureus [22]
  Ratio: 80
[2]
  MIC: 1.25 µM (≈ 0.414 µg/mL)
Enterococcus faecalis [9]
  MIC: 2.5 µM (≈ 0.828 µg/mL)
Enterococcus faecium
  MIC: 40 µM (≈ 13.3 µg/mL)
[11]
  MIC: 0.625 µM (≈ 0.207 µg/mL)
Enterococcus faecalis [12]
  MIC: 2.5 µM (≈ 0.828 µg/mL)
Staphylococcus aureus [23]
  Ratio: 170
Staphylococcus aureus [18]
  MIC: 2.5 µM (≈ 0.828 µg/mL)
